Reference: publication PMC10989073, “Antineoplastic effect of compounds C14 and P8 on TNBC and radioresistant TNBC cells by stabilizing the K-Ras4B^G13D/PDE6δ complex” (Frontiers in Oncology, 2024)

Key:
[1] = system: MDA-MB-231RR xenograft tumors; assay: Orthotopic breast carcinoma xenograft, tumor growth; format: in vivo, Nu/Nu nude mice; conditions: female Nu/Nu mice, i.p. daily for 15 days, 30 mg/kg (methods: P8 10 mg/kg)
Protocol: Female immune-deficient Nu/Nu nude mice at 6–8 weeks of age ([…], Mexico City, Mexico) were maintained in pathogen-free conditions with irradiated chow. The animals were subcutaneously injected in the left 4th mammary gland with 2 × 10^6 MDA-MB-231RR cells per tumor in 0.1 ml of sterile phosphate-buffered saline. When MDA-MB-231RR cells reached palpable tumors (≥100 mm^3), mice were divided randomly into four groups receiving vehicle (10% DMSO, 0.05% carboxy methyl cellulose, and 0.02% in PBS) (n = 5), C14 at 30 mg/kg (n = 5), P8 at 10 mg/kg (n = 5), or cisplatin at 6 mg/kg (n = 5) intraperitoneally injected daily for 15 days. Body weight and tumor volume were measured every third day. Tumor sizes were calculated using the formula [(length × width2)/2] in mm.

[2] = system: MDA-MB-231RR cells; assay: Clonogenic assay; format: cell-based, human; conditions: for reduction in colony formation: 10 to 12 days, C14 and P8 at IC50-48, cisplatin 100 µM, doxorubicin 0.5 µM
Protocol: (§1) The principal aim of a clonogenic assay is to evaluate the effect of chemotherapy agents or new drugs by the measurement of their ability to arrest tumor cell division and their ability to develop new colonies after their exposure to these new drugs ([56]). Therefore, the colony formation ability of the cell lines MCF-10A, MDA-MB-231, and MDA-MB-231RR was evaluated after their exposure to the C14 and P8 compounds. In brief, breast cancer cell lines were cultured in 6-well plates (Corning), seeding 300 cells per well, and incubated at 37°C in 5% CO2 for 24 h. Compounds C14 and P8 were added at the maximum evaluated concentration IC50-48. As controls, cells without treatment and cells treated in the presence of a vehicle (DMSO at 0.66%) were employed (Sigma-Aldrich). […] After 10 days of treatment, cells were fixed with 4% PFA and stained with 0.1% crystal violet in citric acid (Sigma-Aldrich) for 15 minutes. Subsequently, the dye present in the cells was extracted using isopropanol and read at 570 nm in a Synergy-HTX microplate reader (BioTek). Each test was performed in triplicate. Data were expressed as % colonies relative to the untreated control ([56]).

[3] = system: MDA-MB-231 cells; assay: Clonogenic assay; format: cell-based, human; conditions: MDA-MB-231, 10 to 12 days; C14 and P8 at IC50-48, cisplatin 100 µM, doxorubicin 0.5 µM
Protocol: as §1

[4] = system: Ras-GTP in MDA-MB-231RR cells; assay: Ras activation pull-down assay (Raf-RBD); format: cell-based, human; conditions: 3 h pre-treatment at IC50-48H, EGF 100 ng/ml 10 min
Protocol: (§2) Subsequently, the cells were stimulated with epidermal growth factor (EGF) (100 ng/ml) for 10 minutes. Lysates (1 mg/ml) were exposed to Ras GTP-binding protein (Raf-RBD), following the manufacturer’s instructions. Experiments for each cell type and condition were repeated three times.

[5] = system: Ras-GTP in MDA-MB-231 cells; assay: Ras activation pull-down assay (Raf-RBD); format: cell-based, human; conditions: MDA-MB-231, 3 h pre-treatment at IC50-48H, EGF 100 ng/ml 10 min
Protocol: as §2

[6] = system: cyclin D1 and GSK3β in MDA-MB-231RR cells; assay: Western blotting of cyclin D1 and GSK3β; format: cell-based, human; conditions: 3 h; for reduction in cyclin D1: C14 and P8 at IC50-24 (Figure 7 legend), cisplatin 100 µM, doxorubicin 0.5 µM; for reduction in GSK3β expression: IC50-24 (Figure 7 legend), densitometry
Protocol: (§3) To determine the effect of the C14 and P8 compounds over the protein effectors of K-Ras4B, AKT, and ERK, immunoblotting assays were conducted with specific antibodies. In brief, MCF-10A, MDA-MB-231, and MDA-MB-231RR cells were plated in 100-mm culture dishes until 80% of confluents. Cell adhesion was allowed for 24 h. […] After pre-treatment, cells were stimulated with 100 ng/ml EGF for 10 minutes to promote AKT and ERK activation. Later, the whole-cell extracts were obtained by the lysis of the cells (Cytoskeleton) in the presence of proteases and phosphatase inhibitors. Subsequently, the protein extracts were incubated at 4°C for 40 minutes to be clarified by centrifugation for 10 minutes at 14,000 rpm, at 4°C. The protein concentration of each extract was determined by using the Precision Red Advanced Protein Assay Reagent (Cytoskeleton) Then, approximately 25 μg of protein extract was electrophoresed in 10% sodium dodecyl sulfate–polyacrylamide gel electrophoresis (SDS-PAGE) and transferred to polyvinylidene fluoride (PVDF) membranes (Millipore, Billerica, MA, USA). Blots were probed using the following primary antibodies: Total ERK (Cell Signaling, Danvers, MA, USA), pERK (Cell Signaling), Total AKT (Cell Signaling), pAKT (Cell Signaling), GSK3β (Cell Signaling), and cyclin D1 (Abcam) at a 1:1,000 dilution. As a control, an anti-GAPDH antibody (GeneTex, Irvine, CA, USA) was employed at a 1:100,000 dilution and γ-Tubulin (Invitrogen) 1:5,000. Densitometric analysis of blots was performed using the software ImageJ version 1.45 (National Institutes of Health, Bethesda, […], USA).

[7] = system: cyclin D1 and GSK3β in MDA-MB-231 cells; assay: Western blotting of cyclin D1 and GSK3β; format: cell-based, human; conditions: MDA-MB-231, 3 h; for reduction in cyclin D1 expression: C14 and P8 at IC50-24 (Figure 7 legend), cisplatin 100 µM, doxorubicin 0.5 µM; for reduction in GSK3β expression: IC50-24 (Figure 7 legend), densitometry
Protocol: as §3

[8] = system: AKT and ERK phosphorylation in MDA-MB-231RR cells; assay: Western blotting of pAKT and pERK; format: cell-based, human; conditions: IC50-48 for 3 h, EGF 100 ng/ml 10 min, densitometry
Protocol: as §3

[9] = system: AKT and ERK phosphorylation in MDA-MB-231 cells; assay: Western blotting of pAKT and pERK; format: cell-based, human; conditions: MDA-MB-231, IC50-48 for 3 h, EGF 100 ng/ml 10 min, densitometry
Protocol: as §3

[10] = system: MCF-10A cells; assay: Apoptosis/necrosis assay (Annexin V–propidium iodide, flow cytometry); format: cell-based, human
Protocol: Apoptosis and necrosis were determined using the Apoptosis/Necrosis Detection kit (Abcam, Cambridge, UK) according to the manufacturer’s instructions. In brief, approximately 500,000 cells were seeded in 6-well plates (Corning) for 24 h. […] Cells were harvested and collected by centrifugation. All the samples were analyzed in triplicate using flow cytometry equipment FACSCalibur instrument (BD Biosciences, San Jose, CA, USA) at […] and 575-nm emission. Data analysis was performed using the FlowJo software (Tree Star Inc., Ashland, OR, USA). All experiments were performed in triplicate.

| Structure (SMILES) | reduction in tumor size [1] | reduction in colony formation [2] | reduction in colony formation [3] | decrease in Ras-GTP levels [4] | reduction in Ras-GTP levels [5] | reduction in cyclin D1 [6] | reduction in GSK3β expression [6] | reduction in cyclin D1 expression [7] | reduction in GSK3β expression [7] | reduction in pAKT [8] | reduction in pERK [8] | reduction in pAKT [9] | reduction in pERK [9] | apoptosis cells ([10]; 24 h, cisplatin 100 µM, doxorubicin 0.5 µM) | colonies persisted ([2]; C14 at IC50-48) | viability ([10]; 24 h at IC50-24, flow cytometry) |
| --- | --- | --- | --- | --- | --- | --- | --- | --- | --- | --- | --- | --- | --- | --- | --- | --- |
| O=C(CN1CCN(c2cccc(Cl)c2)CC1)N[C@@H]1CCOc2ccccc21 [P8, 2-[4-(3-chlorophenyl)piperazin-1-yl]-N-[(4R)-chroman-4-yl]acetamide] | 41.6% | up to 99% | up to 95% | over 60% | over 80% | 18% | 25% | 20% | 40% | > 70% | 35% | up to 70% | up to 70% |  |  |  |
| N.N.[Cl][Pt][Cl] [Cisplatin, cisplatin, reference compound] |  | 99% | significant reduction |  |  | 20% |  | 10% |  |  |  |  |  | over 70% |  |  |
| CN(CC(=O)NC1CCOc2ccccc21)Cc1cccc(Cl)c1 (stereo not drawn) [C14, 2-[(3-chlorophenyl)-methyl-methyl-amino]-N-croman-4-yl-acetamide] | 40.0% | up to 90% | up to 95% | approximately 20% | 20% | 40% | 50% | 20% | did not show an effect | > 70% | approximately 30% | up to 60% | up to 70% |  | ~10% | 91.1% |
